The record followed here is doi:10.1101/2023.02.27.530254, “Large library docking for cannabinoid-1 receptor agonists with reduced side effects” (bioRxiv, 2024).

The target in data set [1] is T1, hCB2 (Homo sapiens, UniProt P34972). Kind of data set: bioSens-All ebBRET effector biosensor signaling profiling, HEK293. Set-up: host or cells: HEK293 (HEK293SL clone), transient. Type of data set: cell-based. On the procedure: (§1) ebBRET-based effector membrane translocation biosensor assays were conducted at Domain Therapeutics NA Inc. (Montreal, QC, Canada) as previously described. […] HEK293 cells were maintained in Dulbecco’s Modified Eagle Medium (DMEM) (Wisent) supplemented with 1% penicillin- streptomycin (Wisent) and 10% (or 2 % for transfection) fetal bovine serum (Wisent) at 37°C with 5% CO2. All biosensor-coding plasmids and related information are the property of Domain Therapeutics NA Inc. The total amount of transfected DNA was adjusted and kept constant at 1 μg per mL of cell culture to be transfected using salmon sperm DNA (Invitrogen) as ‘carrier’ DNA, PEI (polyethylenimine 25 kDa linear, PolyScience) and DNA (3:1 ml PEI:mg DNA ratio) were first diluted separately in 150 mM NaCl then mixed and incubated for at least 20 minutes at room temperature to allow for the formation of DNA/PEI complexes. During the incubation, HEK293 cells were detached, counted, and re-suspended in maintenance medium to a 350,000 cells per mL density. At the end of the incubation period, the DNA/PEI mixture was added to the cells. Cells were finally distributed in 96-well plates (White Opaque 96-well /Microplates, Greiner) at a density of 35,000 cells per well. Forty-eight hours post-transfection, medium was aspirated and replaced with 100 μl of Hank’s Balanced Salt Solution buffer (HBSS) (Wisent) per well using 450-Select TS Biotek plate washer. After 60 min incubation in this medium, 10 μL of 10 μM e-Coelenterazine Prolume Purple (Methoxy e-CTZ) (Nanolight) was added to each well for a final concentration of 1 μM immediately followed by addition of increasing concentrations of the test compounds to each well using the HP D300 digital dispenser (Tecan). All compounds were assayed at 22 concentrations with each biosensor after a 10-minute room temperature incubation period. […] All BRET ratios were standardized using the universal BRET (uBRET) equation: uBRET=BRETratio-A/B-A×10,000 where A is the BRET ratio obtained from transfection of negative control and B is the BRET ratio obtained from transfection of positive control. […] The data were analyzed using the four-parameter logistic non-linear regression model in GraphPad Prism 9.1 and data were presented as means ± CIs of 1–4 independent experiments.
T1 sequence (P34972 whole entry, the tested form may be a part): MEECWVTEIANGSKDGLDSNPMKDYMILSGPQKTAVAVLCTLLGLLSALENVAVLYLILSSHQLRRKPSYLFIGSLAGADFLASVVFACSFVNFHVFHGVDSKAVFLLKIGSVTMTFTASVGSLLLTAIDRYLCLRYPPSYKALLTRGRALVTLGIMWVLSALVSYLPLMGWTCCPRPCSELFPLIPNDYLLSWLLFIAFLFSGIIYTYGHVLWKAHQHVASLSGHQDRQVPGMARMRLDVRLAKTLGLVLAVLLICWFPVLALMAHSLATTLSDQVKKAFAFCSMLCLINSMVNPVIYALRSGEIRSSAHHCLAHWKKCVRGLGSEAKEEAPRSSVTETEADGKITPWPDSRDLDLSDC
(§2) The SEM was calculated for the logEmax/EC50 ratios using the following equation: SEM=σ/n where σ is the standard deviation, and n is the number of experiments.

Data set [2] concerns C56BL/6 mice. Briefly: Catalepsy test (vertical wire mesh). In kind it is in vivo, mouse. The settings on record: non-cannabinoid positive control. On the procedure: Thirty and 60 minutes after an i.p. injection of the compounds, mice were placed on a vertical wire mesh and the latency to move all four paws was recorded.
Data set [3] addresses T2, hCB1 (Homo sapiens, UniProt P21554). Kind of data set: bioSens-All ebBRET effector biosensor signaling profiling, HEK293. Type of data set: cell-based. Set-up: host or cells: HEK293 (HEK293SL clone), transient. On the procedure:
as §1, §2

For data set [4], the target named is T3, CB1 (Rattus norvegicus, UniProt P20272).
T3 construct: membrane preparations from rat brain (source of CB1); tissue Bioivt RAT00BRAINMZN; host or cells: rat brain
T3 sequence (P20272 whole entry): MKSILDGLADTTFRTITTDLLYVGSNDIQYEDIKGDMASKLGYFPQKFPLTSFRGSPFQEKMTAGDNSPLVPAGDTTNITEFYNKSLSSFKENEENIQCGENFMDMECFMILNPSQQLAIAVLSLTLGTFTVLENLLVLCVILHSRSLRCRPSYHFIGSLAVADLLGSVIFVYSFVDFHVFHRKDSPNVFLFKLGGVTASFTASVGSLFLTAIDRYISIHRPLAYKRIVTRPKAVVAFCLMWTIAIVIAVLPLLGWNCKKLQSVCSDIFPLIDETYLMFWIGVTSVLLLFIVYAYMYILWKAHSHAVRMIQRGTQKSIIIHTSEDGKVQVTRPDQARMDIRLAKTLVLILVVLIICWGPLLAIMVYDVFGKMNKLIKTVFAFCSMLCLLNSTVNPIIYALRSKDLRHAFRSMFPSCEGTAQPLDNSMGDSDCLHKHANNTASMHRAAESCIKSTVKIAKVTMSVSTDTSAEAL
Kind of data set: Radioligand competition binding with [3H]-CP-55,940, rat brain membranes. Particulars: for Ki: rCB1 binding Ki [95% CI], [3H]-CP-55,940 competition, rat brain membranes; for Emax: maximal radioligand displacement, read-out: rCB1 binding Emax [SEM]. On the procedure:
The results were analyzed using nonlinear regression to determine the IC50 and Ki values for each ligand (Prism by GraphPad Software, Inc., San Diego, CA). The Ki values are expressed as the mean of two to three experiments each performed in triplicate.

Data set [5] has as its target T2, hCB1. Briefly: Lance Ultra cAMP accumulation assay (inhibition of forskolin-stimulated cAMP), CHO cells. Type of data set: cell-based. Set-up: expressed in transfected cells. Particulars: hCB1-expressing cells. On the procedure: The inhibition of forskolin-stimulated cAMP accumulation assays was carried out using PerkinElmer’s Lance Ultra cAMP kit following the manufacturer’s protocol. In brief, CHO cells stably expressing human CB1R were harvested by incubation with Versene (ThermoFisher Scientific, Waltham, MA) for 10 min, washed once with Hank’s Balanced Salt Solution, and resuspended in stimulation buffer at ~200 cells/μL density. The ligands at eight different concentrations (0.001–10,000 nM) in stimulation buffer (5 μL) containing forskolin (2 μM final concentration) were added to a 384-well plate followed by the cell suspension (5 μL; ~1000 cells/well). The plate was incubated for 30 min at room temperature. Eu-cAMP tracer (5 μL) and Ulight-anti-cAMP (5 μL) working solutions were then added to each well, and the plate was incubated at room temperature for an additional 60 min. Results were measured on a Perkin-Elmer EnVision plate reader. The EC50 values were determined by nonlinear regression analysis using Prism software (GraphPad Software, Inc., San Diego, CA) and are expressed as the mean of three experiments, each performed in triplicate.

In data set [6] the target is T1, hCB2. Briefly: TRUPATH BRET2 GoA dissociation assay, HEK293T. Type of data set: cell-based. Set-up: expressed in transfected cells; host or cells: HEK293T (transient). The settings on record: HEK-293T, read-out: hCB2 BRET2 + GoA Emax [95% CI]. On the procedure: […]. GoA dissociation BRET2 assays were performed as previously described with minor modifications. In brief, HEK293T cells were co-transfected overnight with human CB2 receptor, GαoA-Rluc, Gβ3, and Gγ9-GFP2 constructs. After 18–24 hours, the transfected cells were seeded into poly-L-lysine-coated 384-well white clear-bottom cell culture plates at a density of 15,000–20,000 cells and incubated with DMEM containing 1% dialyzed FBS, 100 U mL−1 of penicillin and 100 μg ml−1 of streptomycin for another 24 hours. The next day, the medium was aspirated and washed once with 20 μL of assay buffer (1× HBSS, 20 mM HEPES, 0.1% BSA, pH 7.4). Then, 20 μL of drug buffer containing coelenterazine 400a (Nanolight Technology) at 5 μM final concentration was added to each well and incubated for 5 minutes, followed by the addition of 10 μL of 3X designated drug buffer for 5 minutes. Then, 10 μL of 4X final concentrations of ligands were added for 5 minutes. […] BRET ratio was computed as the ratio of the GFP2 emission to RLuc8 emission. […] Each experiment was performed in triplicate and functional IC50 values were determined from the mean of four independent experiments.

The target in data set [7] is T2, hCB1. Briefly: Tango β-arrestin-2 recruitment assay, HTLA cells. Type of data set: cell-based. Set-up: expressed in transfected cells. On the procedure: (§3) The Tango β-arrestin-2 recruitment assays were performed as described. In brief, HTLA cells were transiently transfected with human CB1R or CB2R Tango DNA construct overnight in DMEM supplemented with 10 % FBS, 100 μg ml−1 streptomycin and 100 U ml−1 penicillin. The transfected cells were then plated into poly-L-lysine-coated 384-well white clear-bottom cell culture plates in DMEM containing 1% dialysed FBS at a density of 10,000–15,000 cells per well. After incubation for 6 h, the plates were added with drug solutions prepared in DMEM containing 1% dialysed FBS for overnight incubation. On the day of assay, medium and drug solutions were removed and 20 μl per well of BrightGlo reagent (Promega) was added. The plates were further incubated for 20 min at room temperature and counted using the Wallac TriLux Microbeta counter (PerkinElmer). The results were analysed using GraphPad Prism 9.1. Each experiment was performed in triplicate and functional […] values were determined from the mean of three independent experiments.

Data set [8] deals with T1, hCB2. Kind of data set: Tango β-arrestin-2 recruitment assay, HTLA cells. Set-up: expressed in transfected cells; host or cells: HTLA (transient). Particulars: for Emax: HTLA, read-out: hCB2 Tango ß-arrestin recruitment Emax [95% CI]. Type of data set: cell-based. On the procedure:
as §3

[9] abbreviates: HEK293, read-out: hCB1 Gi1 Emax [95% CI].
The mark [10] stands for this setting: HEK293, read-out: hCB1 GoB Emax [95% CI].
Setting [11] is: HEK293, read-out: hCB1 Gz Emax [95% CI].

Like-named read-outs stand apart in the source and are kept apart here.

T2 sequence (P21554 whole entry): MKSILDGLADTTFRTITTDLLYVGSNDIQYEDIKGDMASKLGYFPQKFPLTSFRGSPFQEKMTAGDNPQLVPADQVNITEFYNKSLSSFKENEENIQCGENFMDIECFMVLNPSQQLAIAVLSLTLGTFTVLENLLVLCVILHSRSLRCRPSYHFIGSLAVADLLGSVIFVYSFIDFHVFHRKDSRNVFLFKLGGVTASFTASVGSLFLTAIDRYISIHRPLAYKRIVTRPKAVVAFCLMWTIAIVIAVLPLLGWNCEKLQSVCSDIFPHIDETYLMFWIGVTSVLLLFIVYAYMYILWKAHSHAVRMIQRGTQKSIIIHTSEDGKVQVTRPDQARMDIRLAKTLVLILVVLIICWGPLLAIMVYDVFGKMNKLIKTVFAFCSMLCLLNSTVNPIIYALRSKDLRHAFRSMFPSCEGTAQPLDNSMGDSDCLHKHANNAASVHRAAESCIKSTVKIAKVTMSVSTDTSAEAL

Regarding `CCCCC/C=C\C/C=C\C/C=C\C/C=C\CCCC(=O)OC(CO)CO` [2-AG, reference compound], the “hCB2 Gi1 pEC50 [95% CI]” value in data set [1] (Gi1 sensor) was 6.66 [6.6 – 6.7]. For the same compound, the “hCB2 Gi2 pEC50 [95% CI]” value in data set [1] (Gi2 sensor) was 7.0 [6.9 – 7.2]. In addition, in data set [1] (Gi2 sensor, normalized to CP-55,940), the “hCB2 Gi2 Emax [95% CI]” value was 78 [74 – 84]. In data set [1] (GoB sensor), the “hCB2 GoB pEC50 [95% CI]” value is 6.4 [6.3 – 6.5]. In addition, the “hCB2 GoB Emax [95% CI]” value in data set [1] (GoB sensor, normalized to CP-55,940) is 101 [98 – 104]. Moreover, in data set [1] (Gz sensor), the “hCB2 Gz pEC50 [95% CI]” value was 5.7 [4.1 – 6.0]. In addition, in data set [1] (Gz sensor, normalized to CP-55,940), the “hCB2 Gz Emax [95% CI]” value is 96 [76 – 233]. Besides, the EC50 amounted to 1.85 µM in data set [1] (read-out: hCB2 Barr2 + GRK2 EC50 [95% CI], ßarrestin-2 sensor with GRK2); 0.217 µM in data set [1] (read-out: hCB2 Gi1 EC50 [95% CI], Gi1 sensor); 0.096 µM in data set [1] (read-out: hCB2 Gi2 EC50 [95% CI], Gi2 sensor); 0.394 µM in data set [1] (read-out: hCB2 GoB EC50 [95% CI], GoB sensor); 2.12 µM in data set [1] (read-out: hCB2 Gz EC50 [95% CI], Gz sensor). Moreover, in data set [1] (ßarrestin-2 sensor with GRK2), the “hCB2 Barr2 + GRK2 pEC50 [95% CI]” value was 5.7 [5.4 – 6.0]. The “hCB2 Barr2 + GRK2 Emax [95% CI]” value in data set [1] (ßarrestin-2 sensor with GRK2, normalized to CP-55,940) is 118 [104 – 140].
In the case of `O=C(CCCN1CCC(O)(c2ccc(Cl)cc2)CC1)c1ccc(F)cc1` [haloperidol, reference compound], the catalepsy result in data set [2] was “dramatic catalepsy”.
Turning to `Cn1nc(-c2nnc(C(C)(C)Oc3ccc(Cl)cc3)o2)c2ccccc2c1=O` [‘0450], the values for the Emax in data set [3] (setting [9]) and in data set [3] (setting [10]) were 49% and 36%, respectively. Moreover, the EC50 is 56.3 µM in data set [3] (hCB1 Gi1 EC50 [95% CI]), 50.1 µM in data set [3] (hCB1 Gi1 pEC50 [95% CI]) and 2.51 µM in data set [3] (hCB1 GoB EC50 [95% CI]). In addition, the Ki in data set [4] came out at 0.691 µM. In addition, the “functional efficacy (decrease in forskolin stimulated cAMP)” value in data set [5] is listed as “modest agonism”.
On to `COC(=O)[C@@H]1[C@@H]2CCC[C@@H]2CN1C(=O)c1cc(C)n(-c2cccc(C(F)(F)F)c2)n1` [‘6439], for which the maximum response (Emax) in data set [3] (setting [9]) was found to be 95%; in data set [3] (setting [10]) it was 100%; in data set [3] (setting [11]) it was 162%; in data set [6], 81%; in data set [4], 106%; in data set [8], 14%. The EC50 was 0.0631 µM in data set [3] (hCB1 Gi1 pEC50 [95% CI]); 0.0609 µM in data set [3] (hCB1 GoB EC50 [95% CI]); 0.0631 µM in data set [3] (hCB1 GoB pEC50 [95% CI]); 0.339 µM in data set [3] (hCB1 Gz EC50 [95% CI]); > 10 µM in data set [7]; 0.338 µM in data set [8]. In addition, in data set [4], the affinity, expressed as Ki, was 0.251 µM.
For the compound `COC(=O)[C@@H]1[C@@H]2CCC[C@@H]2CN1C(=O)c1cc(C)n(-c2cccc(Cl)c2)n1` [‘10010], the Emax in data set [3] (setting [9]) was found to be 74%; in data set [3] (setting [10]) it was 71%; in data set [3] (setting [11]), 144%; in data set [4] it was 101%; in data set [8] it was 18%. In addition, the EC50 in data set [3] (hCB1 Gi1 EC50 [95% CI]) was 0.814 µM; in data set [3] (hCB1 GoB EC50 [95% CI]), 0.801 µM; in data set [3] (hCB1 GoB pEC50 [95% CI]), 0.794 µM; in data set [3] (hCB1 Gz EC50 [95% CI]), 1.4 µM; in data set [7], > 10 µM; in data set [8] it was 0.556 µM. In addition, the Ki in data set [4] came out at 1.2 µM. In data set [4] (screens at 10 μM (white cells), 1 μM (orange) or 300 nM (green), cell colours not visible), the “% [3H]-CP-55,940 displacement (mean) from single point screen” value is 33.86%.
For `COC(=O)C(NC(=O)c1cc(C)n(-c2cccc(F)c2)n1)c1cccs1` (centres unmarked) [‘51486], the Emax in data set [3] (setting [9]) is 73%; in data set [3] (setting [10]), 74%; in data set [3] (setting [11]), 130%. Further, the EC50 in data set [3] (hCB1 Gi1 EC50 [95% CI], Gi1 sensor) was 0.849 µM; in data set [3] (hCB1 GoB EC50 [95% CI]), 0.711 µM; in data set [3] (hCB1 GoB pEC50 [95% CI]) it was 0.631 µM; in data set [3] (hCB1 Gz EC50 [95% CI]) it was 1.12 µM. The compound also showed an LE in data set [4] (ligand efficiency) of 0.32. In addition, the LLE in data set [4] (lipophilic ligand efficiency) is listed as 3.1. Besides, the Ki in data set [4] is 0.731 µM. Also, in data set [5], the “functional efficacy (decrease in forskolin stimulated cAMP)” value is on record as “modest agonism”.
